Reference: patent publication US20040213743A1, “Sensorially active substances embedded in plastic” (priority 1996, published 2004)
Like-named read-outs stand apart in the source and are kept apart here.

Tests used:
[1] = system: rats; assay: rats gnawing on denatonium benzoate-treated flexible PVC; format: in vivo
[2] = solubility in plastic and solvents; format: physicochemical; details: molten flexible PVC
[3] = cited from earlier work
[4] = cited from earlier work; remark: listed apart in the source
[5] = approximately 0.2 grams of denatonium benzoate in 100 grams of clear flexible PVC

effect on rats which ingest the treated PVC [1, 5]: pronounced soporific effect
solubility in polyvinyl chloride (PVC) [2]: readily dissolves
solubility in polyvinyl chloride (PVC) ([2]; listed as Bitrex™): soluble in PVC
Structure (SMILES): CC[N+](CC)(CC(=O)Nc1c(C)cccc1C)Cc1ccccc1 [denatonium benzoate]
deterrence of gnawing on the PVC [1, 5]: does not deter rats from gnawing and eating the PVC
deterrence of gnawing on the PVC ([1]; approximately 2.5 grams of denatonium benzoate in 100 grams of clear flexible PVC, also when sample thoroughly washed): quite effective in discouraging rats from gnawing on the plastic
skin irritation ([3]; at concentrations of 0.05%): does not irritate the skin
skin irritation ([3]; even in fairly high concentrations): non-irritating to the skin
solubility in organic solvents ([4]; benzene and chloroform): readily soluble
solubility in ether ([4]; ether): nearly insoluble
